pIC50: −log10 of the molar value. Like-named read-outs stand apart in the source and are kept apart here.
What was measured:
[1] = molecular target: T1, human transporter OCT2 (Homo sapiens, UniProt O15244); assay: In vitro ion transport assay 1, OCT2; format: cell-based; conditions: probe substrate 10 μM [14C]-metformin
T1 construct: expressed in transfected cells; host or cells: MDCK-II
T1 sequence (O15244 1-555): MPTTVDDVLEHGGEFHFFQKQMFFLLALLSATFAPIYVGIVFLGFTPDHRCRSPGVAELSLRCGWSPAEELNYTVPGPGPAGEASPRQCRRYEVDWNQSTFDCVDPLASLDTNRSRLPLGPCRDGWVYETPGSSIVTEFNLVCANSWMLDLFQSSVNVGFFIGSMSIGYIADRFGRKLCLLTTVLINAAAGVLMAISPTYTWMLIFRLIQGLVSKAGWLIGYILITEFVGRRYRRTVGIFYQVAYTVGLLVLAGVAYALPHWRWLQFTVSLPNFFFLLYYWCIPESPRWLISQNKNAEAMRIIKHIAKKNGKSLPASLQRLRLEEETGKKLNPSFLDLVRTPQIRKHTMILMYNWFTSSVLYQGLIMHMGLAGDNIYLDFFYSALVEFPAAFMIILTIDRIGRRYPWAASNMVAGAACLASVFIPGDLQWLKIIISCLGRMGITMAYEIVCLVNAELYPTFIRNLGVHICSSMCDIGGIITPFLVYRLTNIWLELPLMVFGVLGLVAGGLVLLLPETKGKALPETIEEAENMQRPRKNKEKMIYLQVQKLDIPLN
Experimental: (§1) Compound 1 was studied in the concentration range of 0.1-100 μM for its potency against transport mediated by various transporter proteins. [table]

[2] = molecular target: T2, human transporter MATE2-K (Homo sapiens, UniProt Q86VL8); assay: In vitro ion transport assay 1, MATE2-K; format: cell-based; conditions: probe substrate 10 μM [14C]-metformin
T2 construct: expressed in transfected cells; host or cells: MDCK-II
T2 sequence (Q86VL8 1-566 isoform Q86VL8-3): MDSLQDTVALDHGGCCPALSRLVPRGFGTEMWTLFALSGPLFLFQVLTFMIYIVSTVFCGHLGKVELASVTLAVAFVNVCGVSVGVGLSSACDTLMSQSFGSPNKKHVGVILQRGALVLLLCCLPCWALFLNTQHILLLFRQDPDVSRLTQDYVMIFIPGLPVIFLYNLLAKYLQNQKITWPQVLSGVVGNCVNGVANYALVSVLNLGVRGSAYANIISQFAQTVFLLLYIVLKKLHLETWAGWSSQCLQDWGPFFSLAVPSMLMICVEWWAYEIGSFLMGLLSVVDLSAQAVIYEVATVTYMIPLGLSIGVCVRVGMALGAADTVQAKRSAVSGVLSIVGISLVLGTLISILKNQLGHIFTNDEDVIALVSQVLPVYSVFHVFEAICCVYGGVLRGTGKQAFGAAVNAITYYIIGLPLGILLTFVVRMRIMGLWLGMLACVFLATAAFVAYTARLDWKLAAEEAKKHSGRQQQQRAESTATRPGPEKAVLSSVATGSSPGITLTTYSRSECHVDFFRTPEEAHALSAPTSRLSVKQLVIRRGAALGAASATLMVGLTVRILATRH
Experimental: as §1

[3] = molecular target: T3, human transporter OAT3 (Homo sapiens, UniProt Q8TCC7); assay: In vitro transport assay 2, OAT3; format: cell-based
T3 construct: expressed in transfected cells; host or cells: MDCK-II
T3 sequence (Q8TCC7 1-542): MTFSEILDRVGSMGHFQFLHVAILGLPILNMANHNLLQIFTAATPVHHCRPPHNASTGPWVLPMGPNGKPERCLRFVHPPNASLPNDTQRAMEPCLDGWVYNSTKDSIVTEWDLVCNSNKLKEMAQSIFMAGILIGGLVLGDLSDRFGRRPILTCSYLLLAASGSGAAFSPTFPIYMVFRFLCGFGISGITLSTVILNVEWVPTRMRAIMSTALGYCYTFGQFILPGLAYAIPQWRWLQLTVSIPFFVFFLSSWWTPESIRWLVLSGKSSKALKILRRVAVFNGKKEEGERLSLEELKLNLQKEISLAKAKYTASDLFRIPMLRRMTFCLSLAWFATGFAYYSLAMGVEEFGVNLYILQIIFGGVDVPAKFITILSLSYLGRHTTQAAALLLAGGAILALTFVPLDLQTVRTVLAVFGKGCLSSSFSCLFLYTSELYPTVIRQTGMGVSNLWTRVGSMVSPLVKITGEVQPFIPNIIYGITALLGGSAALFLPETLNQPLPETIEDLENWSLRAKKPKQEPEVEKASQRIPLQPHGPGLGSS
Experimental: (§2) Compound 1 was studied in the concentration range of 0.1-10 μM for its potency against transport mediated by various transporter proteins.

[4] = molecular target: T4, human transporter URAT1 (Homo sapiens, UniProt Q96S37); assay: In vitro transport assay 2, URAT1; format: cell-based; conditions: 20 μM [14C]-uric acid
T4 construct: expressed in transfected cells; host or cells: MDCK-II
T4 sequence (Q96S37 1-553): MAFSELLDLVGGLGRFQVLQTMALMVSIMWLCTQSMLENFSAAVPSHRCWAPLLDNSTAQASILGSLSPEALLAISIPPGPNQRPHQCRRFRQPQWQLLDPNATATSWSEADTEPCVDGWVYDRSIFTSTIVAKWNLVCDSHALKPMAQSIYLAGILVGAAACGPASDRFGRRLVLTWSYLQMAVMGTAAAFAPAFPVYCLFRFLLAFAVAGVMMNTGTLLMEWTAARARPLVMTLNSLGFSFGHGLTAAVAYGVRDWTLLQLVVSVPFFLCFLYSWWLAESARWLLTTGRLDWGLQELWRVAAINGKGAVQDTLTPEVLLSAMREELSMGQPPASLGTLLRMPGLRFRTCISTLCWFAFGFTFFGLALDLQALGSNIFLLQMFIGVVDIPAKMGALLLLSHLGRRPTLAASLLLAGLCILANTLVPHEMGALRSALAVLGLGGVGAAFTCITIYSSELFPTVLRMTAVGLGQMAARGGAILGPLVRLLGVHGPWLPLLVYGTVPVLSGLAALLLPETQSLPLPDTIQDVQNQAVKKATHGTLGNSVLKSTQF
Experimental: as §2

[5] = tested on: L61 ASYN transgenic mice; assay: Grip strength, L61 ASYN transgenic mice, 3 month study; format: in vivo; conditions: 5 mg/kg and 10 mg/kg i.p. daily, after 70 days of treatment
Experimental: The effects of Compound 1 on the motor performance deficits (grip strength) and a marker of neuroinflammation (Translocator Protein (18 kDa)) were assessed in both L61 ASYN transgenic and non-transgenic mice in a 3 month administration study.
Briefly, Compound 1 was injected into L61 ASYN transgenic mice and non-transgenic control mice (i.p., once daily) at doses of 5 and 10 mg/kg for 3 months (79 total mice, n=14-17 mice per treatment group). The vehicle control consisted of a solution containing 5% DMSO+20% Cremphor EL+0.9% normal saline. The baseline grip strength of mice was evaluated prior to starting treatments for the 3 month study, and then re-evaluated following 70 days of treatment with vehicle or Compound 1 (5 or 10 mg/kg, i.p. injection daily).

pIC50 [1]: < 4.00 | pIC50 [2]: 4.12 | pIC50 ([3]; 100 nM [3H]-estrone-3-sulfate, read-out: IC50, OAT3 (Substrate: E3S)): 6.05 | pIC50 ([3]; 10 μM [3H]-p-aminohippurate, read-out: IC50, OAT3 (Substrate: PAH)): 6.60 | pIC50 [4]: < 5.00
SMILES: O=S(=O)(c1ccc(-n2cn[nH]c2=S)cc1)c1ccc(Cl)c(C(F)(F)F)c1 [Compound 1, 4-(4-((4-chloro-3-(trifluoromethyl)phenyl)sulfonyl)phenyl)-2,4-dihydro-3H-1,2,4-triazole-3-thione]
grip strength vs vehicle-treated transgenic mice [5]: higher grip strengths
